# According to PubChem BioAssay (NCI):
#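 Where inhibition never reached the appropriate level, the endpoint shown equals the highest concentration tested. Otherwise, values were interpolated linearly from a five-concentration, 48-hour dose response in 96-well plates. TGI is the concentration that stops growth completely.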
# Columns and labels:
# Assay in all cases: DTP human tumour cell line panel, 48 h
# UACC-62 melanoma = tested on: UACC-62 melanoma
# CCRF-CEM leukemia = tested on: CCRF-CEM leukemia
# OVCAR-8 ovarian = tested on: OVCAR-8 ovarian
# A498 renal = tested on: A498 renal
# OVCAR-4 ovarian = tested on: OVCAR-4 ovarian
# SK-MEL-5 melanoma = tested on: SK-MEL-5 melanoma
# SF-268 CNS = tested on: SF-268 CNS
# SK-MEL-28 melanoma = tested on: SK-MEL-28 melanoma
# SF-539 CNS = tested on: SF-539 CNS
# UO-31 renal = tested on: UO-31 renal
SMILES,TGI (UACC-62 melanoma) [µM],TGI (CCRF-CEM leukemia) [µM],TGI (OVCAR-8 ovarian) [µM],TGI (A498 renal) [µM],TGI (OVCAR-4 ovarian) [µM],TGI (SK-MEL-5 melanoma) [µM],TGI (SF-268 CNS) [µM],TGI (SK-MEL-28 melanoma) [µM],TGI (SF-539 CNS) [µM],TGI (UO-31 renal) [µM]
Cc1ccc(NC(=S)NNC(=O)c2cc(-c3ccccc3)nc3ccccc23)cc1C,37,52,44.5,34.2,58.2,34.4,> 100,78.8,40.3,36.3
CO/N=C1/C(n2[nH]c(=O)n(-c3ccccc3)c2=O)C2C=CC1n1c(=O)n(-c3ccccc3)c(=O)n12 (stereo not drawn),> 100,> 100,> 100,> 100,> 100,> 100,> 100,> 100,> 100,> 100
COc1ccc2c(-c3ccc(O)cc3)c(Oc3ccccc3)c(=O)oc2c1,> 100,> 100,> 100,> 62,> 100,> 52,> 100,> 100,> 100,27.5
Cc1ccc(N2C(=O)CC(=O)N(NC(=O)C(C)Oc3ccccc3C)C2=S)cc1 (stereo not drawn),> 100,5.59,> 100,> 100,> 100,> 100,> 100,> 100,> 100,> 100
COc1ccc(S(=O)Cc2cc(OC)ccc2OC)cc1 (stereo not drawn),> 100,> 100,> 100,> 100,> 100,,> 100,> 100,> 100,> 100
C(/C=N/NC1=NCCN1)=N\NC1=NCCN1,> 100,> 100,> 100,> 100,> 100,> 100,> 100,> 100,> 100,> 100
COc1cccc2c1C(=O)c1ccc3cc(CO)cc(O)c3c1C2=O,1,2.02,2.22,9.62,2.03,0.508,5.18,5.61,1.44,7.32
CSCCCNC(=O)c1csc([C@@H](CSC)NC(=O)CCNC(=O)[C@@H](NC(=O)OCC(Br)(Br)Br)C(C)O)n1 (stereo partly drawn),> 100,> 100,> 100,> 100,> 100,> 100,> 100,> 100,> 100,> 100
COc1ccc(/C=N/n2c(C)n[nH]c2=O)cc1,> 100,> 100,> 100,> 100,> 100,,> 100,> 100,> 100,> 100
COc1ccc(C2c3cc4c(cc3OC(N3CCOCC3)C2C)OCO4)c(OC)c1 (stereo not drawn),20.9,38.1,> 74.7,15,> 100,11.5,53,29.8,9.64,58.7
C=CCOc1ccc(C2c3c([nH][nH]c3=O)CC(C)(O)C2C(=O)OC)cc1OC (stereo not drawn),> 100,> 100,> 100,> 100,> 100,> 100,> 100,> 100,> 100,> 100
O=[N+]([O-])/C(C(Cl)=C(Cl)Cl)=C(/Sc1ccccc1)N1CCOCC1,14,4.66,4.06,28.1,28.4,11.4,17,17.6,25.5,16.6
O=C(O)c1cc2c(cc1S(=O)(=O)O)C1C(C3C2C2(Cl)C(Cl)=C(Cl)C3(Cl)C2(Cl)Cl)C2(Cl)C(Cl)=C(Cl)C1(Cl)C2(Cl)Cl (stereo not drawn),46.9,37.3,> 100,> 100,> 100,> 100,> 100,> 100,60.3,> 100
CCOC(=O)NNC1(SC)NC(=O)c2c(cc(Cl)oc2=O)O1 (stereo not drawn),25.1,10.5,5.56,29.2,18.9,> 45.5,10.7,10.5,4.57,3.35
C=C(Br)C(Cl)(CBr)CCC(Br)C(C)(C)Cl (stereo not drawn),> 10,> 10,> 10,> 10,> 10,> 10,> 10,> 10,> 10,> 10
C=CC1(CBr)CCC(C(C)(C)Br)O1 (stereo not drawn),22.3,6.51,9.45,33.5,28,23.2,38.2,23.9,30.8,25.7
C=C1CC(CNc2cc(Cl)nc(N)n2)C1,> 100,> 100,> 100,76.3,> 100,> 100,> 100,> 100,> 100,> 100
OCC1CCCCN1Cc1nc2ccc(Cl)cc2[nH]1 (stereo not drawn),> 100,> 100,> 100,> 100,> 100,> 100,> 100,> 100,> 100,> 100
COc1cc(/C=C2\CCc3cc(OC)c(OC)cc3C2=O)cc(OC)c1,18.4,> 60,> 52,39.8,> 100,18.1,> 100,> 100,> 31,> 100
CC(=O)NC1CCC(NC(=O)OC(C)(C)C)C(NC(=O)OC(C)(C)C)C1 (stereo not drawn),> 100,> 100,> 100,> 100,> 100,> 100,> 100,> 100,> 100,> 100
Cc1ccc(C2=Nc3ccccc3NC(=O)C2)cc1,> 100,> 100,> 100,> 100,> 100,> 100,> 100,> 100,> 100,> 100
CCOC(=O)NC(N(C)C(C(C)C)P(=O)(OCC)OCC)(C(F)(F)F)C(F)(F)F (stereo not drawn),> 100,> 100,> 100,> 100,> 100,> 100,> 100,> 100,> 100,> 100
